# Results reported in patent publication US6869935B2, “Gene Therapy for proliferative vitreoretinopathy” (priority 1996, dated 2005).
# Assays:
# HSV-tk positive RDFs = assay: In vitro sensitivity to ganciclovir (XTT assay), HSV-tk positive RDFs; format: cell-based, rabbit; settings: Oryctolagus cuniculus, 72 hr of incubation, read-out: IC50 (concentration required for 50% cytotoxicity)
# Protocol: (§1) The sensitivity of HSV-tk positive RDFs (100% HSV-tk transduced RDFs) and HSV-tk negative RDFs to ganciclovir was determined by using a tetrazolium-based calorimetric assay (XTT assay) (Scudiero et al., Cancer Research, Vol. 48, pgs. 4827-4833 (1988); Roehm et al., J. Immunol. Methods, Vol. 142, pgs. 257-265 (1991)). HSV-tk positive RDFs and HSV-tk negative RDFs were seeded at a density of 5×10^3 cells/well of 96-well culture plates (Corning) and incubated with DMEM-10 at 37° C. in 5% CO2 overnight. Then cells were treated with DMEM-10 containing various concentrations of ganciclovir (GCV; Cytovene; Syntex Inc., Palo Alto, Calif.) or only DMEM-10. After a total of 72 hr incubation, XTT assay was performed using a kit (cell proliferation II; Boehringer Mannheim, Indianapolis, Ind.). The results were read on a microplate reader (MR700; Dynatech Laboratories, Inc., Chantilly, Va.).
# HSV-tk negative RDFs = assay: In vitro sensitivity to ganciclovir (XTT assay), HSV-tk negative RDFs; format: cell-based, rabbit; settings: concentration range 0.001-50 μg/ml
# Protocol: as §1
# [1] = test system: mixtures of HSV-tk-positive and -negative RDFs; assay: In vitro bystander effect, cocultures of HSV-tk positive and negative cells; format: cell-based, rabbit; settings: 1 μg/ml ganciclovir; 3 days of incubation; effect depended on percentage of HSV-tk positive cells
# Protocol: To determine the cytotoxic effect of a small number of HSV-tk positive cells on neighboring HSV-tk-negative cells, cocultures of HSV-tk positive cells and HSV-tk-negative cells were performed by mixing these two cells in varying proportions. Briefly, mixtures of HSV-tk-positive and -negative RDFs (2.0×10^4 cells/well) were seeded at various mixing ratios (0, 1.0, 2.5, 5.0, 10, and 100% HSV-tk-positive cells of total cells) in 24-well culture plates (Corning) and incubated at 37° C. in 5% CO2 overnight. Cells were then treated with 1 μg/ml ganciclovir for 3, 5, and 7 days. The number of cells was counted with a Coulter counter (Coulter Electronics, Inc., Hialeah, Fla.).
# [2] = test system: experimental proliferative vitreoretinopathy (HSV-tk positive/negative RDFs); assay: In vivo bystander effect in experimental proliferative vitreoretinopathy; set-up: species or system pigmented rabbits
# Protocol: The right eye was used from each of 20 pigmented rabbits of both sexes, weighing 2.5 to 3.5 kg each. Vitrectomy was performed in the same manner as described above. One week after vitrectomy, group D (n=7) received an injection into the vitreous cavity of a mixture of 0.25×10^4 homologous HSV-tk positive RDFs (5% of total cells) and 4.75×10^4 homologous HSV-tk negative RDFs (95% of total cells). Group E (n=7) received a mixture of 0.05×10^4 homologous HSV-tk positive RDFs […] HSV-tk negative RDFs (95% of total cells). Group F (n=6) received 5.0×10^4 homologous HSV-tk negative RDFs as a control. All eyes received 200 μg of ganciclovir (0.1 ml of solution dissolved in distilled water) just after the cell injection and on day 4. Indirect ophthalmoscopic examinations were performed in a masked fashion on days 4, 7, 14 and 28. Clinical severity of PVR was graded from 0 to 5 as described above.
# [3] = test system: fibroblasts bearing the HSV-TK gene; settings: rabbits; intraocular injection of fibroblasts bearing the HSV-TK gene; cited from earlier work
compound,measurement,setting,value
Nc1nc(O)c2ncn(COC(CO)CO)c2n1 [ganciclovir],IC50,HSV-tk positive RDFs,0.1 µg/mL
same,Toxicity to HSV-tk negative RDFs,HSV-tk negative RDFs,no significant toxicity
same,Proliferation of co-culturing cells,[1],inhibited proliferation of co-culturing cells
same,Retinal detachment (stages 3-5),"[2]; group D (5% HSV-tk positive RDFs), 200 μg ganciclovir intravitreal after cell injection and day 4, day 4 and day 7",no retinal detachment
same,Retinal detachment (stages 3-5),"[2]; group D (5% HSV-tk positive RDFs), 200 μg ganciclovir, day 14 and day 28",No eyes showed retinal detachment
same,Retinal detachment (stages 3-5),"[2]; group E (1% HSV-tk positive RDFs), 200 μg ganciclovir, day 4 and day 7",no retinal detachment
same,Eyes with retinal detachment (stages 3-5),"[2]; group E (1% HSV-tk positive RDFs), 200 μg ganciclovir, day 14 and day 28",14.3%
same,Eyes with retinal detachment (stages 3-5),"[2]; group F (100% HSV-tk negative RDFs), 200 μg ganciclovir, day 4",16.7%
same,Eyes with retinal detachment (stages 3-5),"[2]; group F (100% HSV-tk negative RDFs), 200 μg ganciclovir, day 7",50%
same,Eyes with retinal detachment (stages 3-5),"[2]; group F (100% HSV-tk negative RDFs), 200 μg ganciclovir, day 14 and day 28",66.7%
same,Experimental PVR,[3],inhibited
